From the supplement of paper PMC10307832

Assays:
Experiment in all cases: relative viability (nuclei count vs DMSO), 5 days (fraction); higher = more cells survive
NCI-H1437 = tested on: NCI-H1437
How it was run: (§1)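 A single step with final 0.05% Triton X-100, 1% formaldehyde and 1 ug/ml Hoechst fixed the cells and stained nuclei 5 days after treatment. Lung cancer cell lines in 1536-well plates had been treated by pin tool the day after seeding with one drug alone or a fixed anchor-drug dose plus five library-drug doses (not always all listed) in √10 steps, and nuclei were counted on 4× images. Relative viability is the ratio of nuclei in treated wells to nuclei in vehicle wells, taken as the median of duplicate plates.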

HCC-366 = tested on: HCC-366
How it was run: as §1

H3255 = tested on: H3255
How it was run: as §1

LC-2-ad = tested on: LC-2-ad
How it was run: as §1

PC-14 = tested on: PC-14
How it was run: as §1

NCI-H661 = tested on: NCI-H661
How it was run: as §1

NCI-H1666 = tested on: NCI-H1666
How it was run: as §1

NCI-H2087 = tested on: NCI-H2087
How it was run: as §1

HCC-15 = tested on: HCC-15
How it was run: as §1

ABC-1 = tested on: ABC-1
How it was run: as §1

LXF-289 = tested on: LXF-289
How it was run: as §1

HCC-827 = tested on: HCC-827
How it was run: as §1

UMC-11 = tested on: UMC-11
How it was run: as §1

LCLC-103H = tested on: LCLC-103H
How it was run: as §1

COR-L23 = tested on: COR-L23
How it was run: as §1

NCI-H2085 = tested on: NCI-H2085
How it was run: as §1

NCI-H1975 = tested on: NCI-H1975
How it was run: as §1

PC-3 [JPC-3] = tested on: PC-3 [JPC-3]
How it was run: as §1

NCI-H23 = tested on: NCI-H23
How it was run: as §1

NCI-H2228 = tested on: NCI-H2228
How it was run: as §1

NCI-H2009 = tested on: NCI-H2009
How it was run: as §1

## CN1CCN(CCOc2cc(OC3CCOCC3)c3c(Nc4c(Cl)ccc5c4OCO5)ncnc3c2)CC1 [Saracatinib] + CC(C)C[C@H](NC(=O)[C@H](Cc1ccccc1)NC(=O)c1cnccn1)B(O)O [Bortezomib] (partner 0.002 µM)
NCI-H1437; first compound 0.02 µM
  relative viability: 0.502
NCI-H1437; first compound 0.2 µM
  relative viability: 0.505
NCI-H1437; first compound 0.6325 µM
  relative viability: 0.437
NCI-H1437; first compound 2 µM
  relative viability: 0.453
HCC-366; first compound 0.02 µM
  relative viability: 1.04
HCC-366; first compound 0.6325 µM
  relative viability: 0.935
HCC-366; first compound 2 µM
  relative viability: 0.769
H3255; first compound 0.02 µM
  relative viability: 0.864
H3255; first compound 0.2 µM
  relative viability: 0.892
H3255; first compound 0.6325 µM
  relative viability: 0.812
H3255; first compound 2 µM
  relative viability: 0.272
LC-2-ad; first compound 0.02 µM
  relative viability: 1.15
LC-2-ad; first compound 0.6325 µM
  relative viability: 1.12
LC-2-ad; first compound 2 µM
  relative viability: 0.843
PC-14; first compound 0.02 µM
  relative viability: 0.941
PC-14; first compound 0.2 µM
  relative viability: 0.685
PC-14; first compound 0.6325 µM
  relative viability: 0.261
PC-14; first compound 2 µM
  relative viability: 0.169
NCI-H661; first compound 0.02 µM
  relative viability: 0.831
NCI-H661; first compound 0.2 µM
  relative viability: 0.849
NCI-H661; first compound 0.6325 µM
  relative viability: 0.837
NCI-H661; first compound 2 µM
  relative viability: 0.373
NCI-H1666; first compound 0.02 µM
  relative viability: 0.898
NCI-H1666; first compound 0.2 µM
  relative viability: 0.978
NCI-H1666; first compound 0.6325 µM
  relative viability: 1.07
NCI-H1666; first compound 2 µM
  relative viability: 1.06
NCI-H2087; first compound 0.02 µM
  relative viability: 0.87
NCI-H2087; first compound 0.2 µM
  relative viability: 0.608
NCI-H2087; first compound 0.6325 µM
  relative viability: 0.856
NCI-H2087; first compound 2 µM
  relative viability: 0.711
HCC-15; first compound 0.02 µM
  relative viability: 0.969
HCC-15; first compound 0.2 µM
  relative viability: 0.986
HCC-15; first compound 0.6325 µM
  relative viability: 1.04
HCC-15; first compound 2 µM
  relative viability: 0.918
ABC-1; first compound 0.02 µM
  relative viability: 0.275
ABC-1; first compound 0.2 µM
  relative viability: 0.282
ABC-1; first compound 0.6325 µM
  relative viability: 0.312
ABC-1; first compound 2 µM
  relative viability: 0.317
LXF-289; first compound 0.02 µM
  relative viability: 0.937
LXF-289; first compound 0.2 µM
  relative viability: 0.959
LXF-289; first compound 0.6325 µM
  relative viability: 0.966
LXF-289; first compound 2 µM
  relative viability: 0.987
HCC-827; first compound 0.02 µM
  relative viability: 0.965
HCC-827; first compound 0.2 µM
  relative viability: 0.963
HCC-827; first compound 0.6325 µM
  relative viability: 0.479
HCC-827; first compound 2 µM
  relative viability: 0.306
UMC-11; first compound 0.02 µM
  relative viability: 0.667
UMC-11; first compound 0.6325 µM
  relative viability: 0.64
UMC-11; first compound 2 µM
  relative viability: 0.494
LCLC-103H; first compound 0.02 µM
  relative viability: 1.21
LCLC-103H; first compound 0.2 µM
  relative viability: 0.963
LCLC-103H; first compound 0.6325 µM
  relative viability: 1.09
LCLC-103H; first compound 2 µM
  relative viability: 0.941
COR-L23; first compound 0.02 µM
  relative viability: 0.98
COR-L23; first compound 0.2 µM
  relative viability: 0.723
COR-L23; first compound 0.6325 µM
  relative viability: 1.09
COR-L23; first compound 2 µM
  relative viability: 1.05
NCI-H2085; first compound 0.02 µM
  relative viability: 1.07
NCI-H2085; first compound 0.2 µM
  relative viability: 0.91
NCI-H2085; first compound 0.6325 µM
  relative viability: 1.13
NCI-H2085; first compound 2 µM
  relative viability: 1.11
NCI-H1975; first compound 0.02 µM
  relative viability: 0.356
NCI-H1975; first compound 0.6325 µM
  relative viability: 0.443
NCI-H1975; first compound 2 µM
  relative viability: 0.331
PC-3 [JPC-3]; first compound 0.02 µM
  relative viability: 0.905
PC-3 [JPC-3]; first compound 0.2 µM
  relative viability: 0.721
PC-3 [JPC-3]; first compound 0.6325 µM
  relative viability: 0.778
PC-3 [JPC-3]; first compound 2 µM
  relative viability: 0.486
NCI-H23; first compound 0.02 µM
  relative viability: 1.09
NCI-H23; first compound 0.6325 µM
  relative viability: 0.95
NCI-H23; first compound 2 µM
  relative viability: 1.12
NCI-H2228; first compound 0.02 µM
  relative viability: 1.05
NCI-H2228; first compound 0.2 µM
  relative viability: 0.684
NCI-H2228; first compound 0.6325 µM
  relative viability: 1.2
NCI-H2228; first compound 2 µM
  relative viability: 0.652
NCI-H2009; first compound 0.02 µM
  relative viability: 1.01
NCI-H2009; first compound 0.2 µM
  relative viability: 0.912
NCI-H2009; first compound 0.6325 µM
  relative viability: 1.03
NCI-H2009; first compound 2 µM
  relative viability: 0.747

## Nc1cccc2c1CN(C1CCC(=O)NC1=O)C2=O (configuration not stated) [Lenalidomide] + CC(C)C[C@H](NC(=O)[C@H](Cc1ccccc1)NC(=O)c1cnccn1)B(O)O [Bortezomib] (partner 0.002 µM)
NCI-H1437; first compound 0.253 µM
  relative viability: 0.523
NCI-H1437; first compound 0.8 µM
  relative viability: 0.571
NCI-H1437; first compound 2.53 µM
  relative viability: 0.95
NCI-H1437; first compound 8 µM
  relative viability: 0.501
HCC-366; first compound 0.253 µM
  relative viability: 0.985
HCC-366; first compound 0.8 µM
  relative viability: 1.03
HCC-366; first compound 2.53 µM
  relative viability: 1.08
HCC-366; first compound 8 µM
  relative viability: 1.05
H3255; first compound 0.253 µM
  relative viability: 0.886
H3255; first compound 0.8 µM
  relative viability: 0.612
H3255; first compound 2.53 µM
  relative viability: 0.874
H3255; first compound 8 µM
  relative viability: 0.828
LC-2-ad; first compound 0.253 µM
  relative viability: 0.979
LC-2-ad; first compound 0.8 µM
  relative viability: 1.04
LC-2-ad; first compound 2.53 µM
  relative viability: 1.03
LC-2-ad; first compound 8 µM
  relative viability: 1.21
PC-14; first compound 0.253 µM
  relative viability: 0.779
PC-14; first compound 0.8 µM
  relative viability: 0.802
PC-14; first compound 2.53 µM
  relative viability: 0.905
PC-14; first compound 8 µM
  relative viability: 0.854
NCI-H661; first compound 0.253 µM
  relative viability: 0.7
NCI-H661; first compound 0.8 µM
  relative viability: 0.75
NCI-H661; first compound 2.53 µM
  relative viability: 0.794
NCI-H661; first compound 8 µM
  relative viability: 0.755
NCI-H1666; first compound 0.253 µM
  relative viability: 0.816
NCI-H1666; first compound 0.8 µM
  relative viability: 0.544
NCI-H1666; first compound 2.53 µM
  relative viability: 0.813
NCI-H1666; first compound 8 µM
  relative viability: 0.762
NCI-H2087; first compound 0.253 µM
  relative viability: 0.772
NCI-H2087; first compound 0.8 µM
  relative viability: 0.656
NCI-H2087; first compound 2.53 µM
  relative viability: 0.922
NCI-H2087; first compound 8 µM
  relative viability: 0.835
HCC-15; first compound 0.253 µM
  relative viability: 1.02
HCC-15; first compound 2.53 µM
  relative viability: 1.34
HCC-15; first compound 8 µM
  relative viability: 0.959
ABC-1; first compound 0.253 µM
  relative viability: 0.302
ABC-1; first compound 0.8 µM
  relative viability: 0.297
ABC-1; first compound 2.53 µM
  relative viability: 0.278
ABC-1; first compound 8 µM
  relative viability: 0.285
LXF-289; first compound 0.253 µM
  relative viability: 0.958
LXF-289; first compound 0.8 µM
  relative viability: 0.98
LXF-289; first compound 2.53 µM
  relative viability: 1.07
LXF-289; first compound 8 µM
  relative viability: 1.08
HCC-827; first compound 0.253 µM
  relative viability: 1.09
HCC-827; first compound 0.8 µM
  relative viability: 0.798
HCC-827; first compound 2.53 µM
  relative viability: 1.09
HCC-827; first compound 8 µM
  relative viability: 1.04
UMC-11; first compound 0.253 µM
  relative viability: 0.526
UMC-11; first compound 0.8 µM
  relative viability: 0.332
UMC-11; first compound 2.53 µM
  relative viability: 0.856
UMC-11; first compound 8 µM
  relative viability: 0.635
LCLC-103H; first compound 0.253 µM
  relative viability: 1.01
LCLC-103H; first compound 0.8 µM
  relative viability: 0.966
LCLC-103H; first compound 2.53 µM
  relative viability: 1.01
LCLC-103H; first compound 8 µM
  relative viability: 0.869
COR-L23; first compound 0.253 µM
  relative viability: 0.994
COR-L23; first compound 0.8 µM
  relative viability: 1.11
COR-L23; first compound 2.53 µM
  relative viability: 1.07
COR-L23; first compound 8 µM
  relative viability: 1.17
NCI-H2085; first compound 0.253 µM
  relative viability: 1.05
NCI-H2085; first compound 0.8 µM
  relative viability: 0.818
NCI-H2085; first compound 2.53 µM
  relative viability: 1.11
NCI-H2085; first compound 8 µM
  relative viability: 0.881
NCI-H1975; first compound 0.253 µM
  relative viability: 0.447
NCI-H1975; first compound 0.8 µM
  relative viability: 0.341
NCI-H1975; first compound 2.53 µM
  relative viability: 0.412
NCI-H1975; first compound 8 µM
  relative viability: 0.379
PC-3 [JPC-3]; first compound 0.253 µM
  relative viability: 0.872
PC-3 [JPC-3]; first compound 0.8 µM
  relative viability: 0.535
PC-3 [JPC-3]; first compound 2.53 µM
  relative viability: 0.906
PC-3 [JPC-3]; first compound 8 µM
  relative viability: 0.99
NCI-H23; first compound 0.253 µM
  relative viability: 1.12
NCI-H23; first compound 0.8 µM
  relative viability: 1.03
NCI-H23; first compound 2.53 µM
  relative viability: 1.3
NCI-H23; first compound 8 µM
  relative viability: 0.9
NCI-H2228; first compound 0.253 µM
  relative viability: 1
NCI-H2228; first compound 0.8 µM
  relative viability: 0.986
NCI-H2228; first compound 2.53 µM
  relative viability: 1.12
NCI-H2228; first compound 8 µM
  relative viability: 0.942
NCI-H2009; first compound 0.253 µM
  relative viability: 0.929
NCI-H2009; first compound 0.8 µM
  relative viability: 1.02
NCI-H2009; first compound 2.53 µM
  relative viability: 1.22
NCI-H2009; first compound 8 µM
  relative viability: 1.01
